ChEMBL document CHEMBL1201862, “PubChem BioAssay data set” (2004)
The source made the active and inactive calls.

Assays:
Cytochrome P450 1A2 = target: T1, Cytochrome P450 1A2 (Homo sapiens, UniProt P05177);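 also: PubChem cytochrome P450 panel assay, CYP1A2 panel member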
T1 sequence (P05177 whole entry): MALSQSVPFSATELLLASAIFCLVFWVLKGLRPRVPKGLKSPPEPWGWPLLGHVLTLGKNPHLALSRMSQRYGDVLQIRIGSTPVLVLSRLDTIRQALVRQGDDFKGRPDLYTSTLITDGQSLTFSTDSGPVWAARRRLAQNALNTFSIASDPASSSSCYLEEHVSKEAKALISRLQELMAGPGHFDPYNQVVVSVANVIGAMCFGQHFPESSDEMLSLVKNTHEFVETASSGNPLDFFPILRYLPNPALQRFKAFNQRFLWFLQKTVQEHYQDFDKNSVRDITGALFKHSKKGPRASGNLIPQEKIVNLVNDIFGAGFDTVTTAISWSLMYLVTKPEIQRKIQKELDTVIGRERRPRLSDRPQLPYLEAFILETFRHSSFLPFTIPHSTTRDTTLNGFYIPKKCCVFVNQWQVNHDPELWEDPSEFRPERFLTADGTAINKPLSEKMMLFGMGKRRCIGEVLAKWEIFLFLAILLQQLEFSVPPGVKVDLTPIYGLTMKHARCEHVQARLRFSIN

Cytochrome P450 2C9 = Cytochrome P450 2C9 (Homo sapiens, UniProt P11712)
Cytochrome P450 2C9, sequence (P11712 whole entry): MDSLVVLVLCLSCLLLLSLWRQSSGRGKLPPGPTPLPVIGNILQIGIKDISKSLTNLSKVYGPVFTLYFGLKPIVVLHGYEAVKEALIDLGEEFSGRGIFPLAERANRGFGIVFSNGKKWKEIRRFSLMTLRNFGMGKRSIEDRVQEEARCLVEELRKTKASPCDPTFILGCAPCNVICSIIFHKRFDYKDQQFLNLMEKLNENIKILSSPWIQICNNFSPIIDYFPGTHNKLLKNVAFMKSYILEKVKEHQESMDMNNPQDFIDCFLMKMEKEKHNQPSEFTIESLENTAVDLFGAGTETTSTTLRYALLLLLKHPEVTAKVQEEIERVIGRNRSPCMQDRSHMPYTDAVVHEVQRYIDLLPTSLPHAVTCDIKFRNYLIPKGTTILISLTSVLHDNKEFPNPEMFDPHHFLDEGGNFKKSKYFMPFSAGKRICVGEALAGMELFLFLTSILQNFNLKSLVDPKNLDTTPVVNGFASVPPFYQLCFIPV

Cytochrome P450 3A4 = Cytochrome P450 3A4 (Homo sapiens, UniProt P08684);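 also: CYP3A4 tested as one member of a cytochrome P450 panel screen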
Cytochrome P450 3A4, sequence (P08684 whole entry): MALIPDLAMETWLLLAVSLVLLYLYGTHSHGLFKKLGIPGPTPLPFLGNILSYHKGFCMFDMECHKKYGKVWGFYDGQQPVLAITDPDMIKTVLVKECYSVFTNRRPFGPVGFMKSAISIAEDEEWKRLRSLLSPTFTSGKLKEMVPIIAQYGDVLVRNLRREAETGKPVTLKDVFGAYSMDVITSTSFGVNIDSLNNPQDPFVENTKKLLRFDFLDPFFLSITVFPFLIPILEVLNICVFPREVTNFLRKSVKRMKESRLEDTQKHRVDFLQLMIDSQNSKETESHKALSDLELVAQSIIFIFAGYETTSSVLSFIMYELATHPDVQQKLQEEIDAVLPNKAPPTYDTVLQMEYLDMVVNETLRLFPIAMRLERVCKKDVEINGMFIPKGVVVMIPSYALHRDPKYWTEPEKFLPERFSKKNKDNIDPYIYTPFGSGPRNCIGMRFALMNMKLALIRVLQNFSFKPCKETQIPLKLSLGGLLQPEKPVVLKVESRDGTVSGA

[1] = Luminescence Cell-Based Dose Retest to Confirm Inhibitors of Cancer Stem Cells. [Related pubchem assays (depositor defined):AID2717, AID2721]; assay type: functional; details: Homo sapiens
Cytochrome P450 2C19 = Cytochrome P450 2C19 (Homo sapiens, UniProt P33261); assay: Cytochrome panel assay with activity outcomes. Panel member name: p450-cyp2c19 Compounds with AC50 equal or less than 10 uM are considered active; assay type: functional
Cytochrome P450 2C19, sequence (P33261 whole entry): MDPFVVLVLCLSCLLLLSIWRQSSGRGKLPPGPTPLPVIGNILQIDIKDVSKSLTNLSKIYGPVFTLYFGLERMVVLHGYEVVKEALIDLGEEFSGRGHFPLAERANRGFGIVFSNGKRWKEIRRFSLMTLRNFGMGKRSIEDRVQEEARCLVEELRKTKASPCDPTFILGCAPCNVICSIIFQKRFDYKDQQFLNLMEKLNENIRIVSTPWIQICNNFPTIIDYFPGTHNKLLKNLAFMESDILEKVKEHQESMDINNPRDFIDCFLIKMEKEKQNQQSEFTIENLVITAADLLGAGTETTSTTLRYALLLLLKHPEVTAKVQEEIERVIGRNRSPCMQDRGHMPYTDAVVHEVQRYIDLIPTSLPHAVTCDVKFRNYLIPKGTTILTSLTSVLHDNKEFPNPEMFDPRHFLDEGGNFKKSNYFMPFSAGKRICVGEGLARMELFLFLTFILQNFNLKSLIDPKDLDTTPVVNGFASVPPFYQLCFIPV

[2] = test system: Streptococcus sp. 'group A'; assay: Streptococcus pyogenes SK(-)GAS viability under kanamycin – luminescence, BacTiterGlo, confirmation, counter-screen for streptokinase expression inhibitor project, dose response (AID 1900); assay type: functional, organism-based
Streptococcus = assay: GAS UMAA2166 growth inhibition – luminescence, BacTiterGlo, counter-screen for streptokinase expression inhibitor project, dose response (AID 1915); assay type: functional, organism-based;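 also: potency for reduction of bacterial viability or growth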
Streptokinase A = target: T2, Streptokinase A (Streptococcus pyogenes serotype M1, UniProt P10520); assay: viability-normalized secreted streptokinase activity reduction – plasminogen activation absorbance, OD405, dose response (AID 1914); assay type: functional, Streptococcus pyogenes M1 GAS;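 also: secreted streptokinase activity via plasminogen activation per viability signal from cell pellet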
T2 sequence (P10520 whole entry): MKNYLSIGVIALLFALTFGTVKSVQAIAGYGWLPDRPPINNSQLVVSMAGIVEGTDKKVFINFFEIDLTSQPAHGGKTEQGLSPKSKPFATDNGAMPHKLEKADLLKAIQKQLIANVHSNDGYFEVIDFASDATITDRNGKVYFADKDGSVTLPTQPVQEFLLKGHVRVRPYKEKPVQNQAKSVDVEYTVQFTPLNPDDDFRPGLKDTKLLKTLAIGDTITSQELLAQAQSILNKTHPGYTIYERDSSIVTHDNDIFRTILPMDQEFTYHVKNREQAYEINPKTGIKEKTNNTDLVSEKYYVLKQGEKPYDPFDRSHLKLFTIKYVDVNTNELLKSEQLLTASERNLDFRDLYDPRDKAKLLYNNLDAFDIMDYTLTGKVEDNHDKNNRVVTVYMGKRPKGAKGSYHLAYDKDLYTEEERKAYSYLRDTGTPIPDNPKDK

[3] = Trypanosoma cruzi growth suppression in host cells – NIH3T3 host cells, beta-gal luminescence, confirmation (AID 2044); assay type: functional, cell-based;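 also: intracellular parasites grown in NIH/3T3 mouse fibroblasts as host cells; luminescent beta-galactosidase reporter signal from transgenic T. cruzi replicating inside host cells; inhibitors lower the luminescence signal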
[4] = NIH3T3 cell viability loss – ATP luminescence, mouse fibroblasts, counter-screen, dose response (AID 2010); assay type: functional, cell-based;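 also: cells exposed to compound for about 90 hours before reading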

N[C@@H](Cn1cc(F)c(=O)[nH]c1=O)C(=O)O
AC50 (Cytochrome P450 1A2): 31.6 µM (inconclusive)

COc1ccc(N=C(S)Nc2ncccc2C)c(OC)c1
AC50 (Cytochrome P450 2C9): 20 µM (inconclusive) | AC50 (Cytochrome P450 3A4): 39.8 µM (inconclusive)

O=C(c1cnn2c1NC(c1ccc(Br)cc1)CC2C(F)(F)F)N1CCN2CCCC2C1 (stereo unspecified)
AC50 [1]: 1.81 µM (active)

Cn1cc(-c2nc3cncnc3n(Cc3ccccc3Cl)c2=O)c2ccccc21
AC50 (Cytochrome P450 1A2): 3.16 µM (inconclusive) | AC50 (Cytochrome P450 3A4): 7.94 µM (inconclusive)

CC1CNC(=Nc2cccc3ccccc23)S1 (stereo unspecified)
AC50 (Cytochrome P450 2C9): 14.1 µM (inconclusive) | AC50 (Cytochrome P450 3A4): 15.8 µM (inconclusive)

C=CCn1c(SCc2ccccc2)nc2scc(-c3ccc(C)o3)c2c1=O
AC50 (Cytochrome P450 1A2): 1.58 µM (inconclusive)

COC(=O)[C@@]1(Cc2ccccc2)[C@H]2c3cc(C(=O)N4CCCC4)n(Cc4nc5ccccc5[nH]4)c3C[C@H]2CN1C(=O)c1ccccc1
AC50 (Cytochrome P450 1A2): 12.6 µM (inconclusive)

COCC(=O)N1CCC2(CC1)CN(Cc1ccccc1OC)C2
AC50 (Cytochrome P450 2C19; read-out: AC50): 39.8 µM (inconclusive)

CCOC(=O)N1CCC(NC(=O)C2CCN(S(=O)(=O)N3CCCC3)CC2)CC1
AC50 (Cytochrome P450 2C19): inconclusive

Cc1ccc2c(c1)/C(=C1\SC(N(C)c3ccc(O)cc3)=NC1=O)C(=O)N2
EC50 [2]: 6.59 µM (active) | EC50 (Streptococcus): 16.6 µM (active) | EC50 (Streptokinase A): > 150 µM (not active)

O=C(Nc1cccc(Cl)c1N1CCCC1)c1cc2ccccc2o1
EC50 [2]: 8.81 µM (active) | EC50 (Streptococcus): 20.5 µM (active) | EC50 (Streptokinase A): 14.3 µM (active)

N=C1/C(=C\c2ccc(OC(=O)c3ccccc3Cl)cc2)C(=O)N=C2SC(N3CCOCC3)=NN12
EC50 [2]: 37.8 µM (active) | EC50 (Streptococcus): > 150 µM (not active) | EC50 (Streptokinase A): > 150 µM (not active)

CC(=O)NCCNc1ncnc2ccc(-c3ccccc3Cl)cc12
AC50 (Cytochrome P450 2C19; read-out: AC50): 20 µM (inconclusive)

O=C(O)CCSc1ccc([N+](=O)[O-])cc1[N+](=O)[O-]
EC50 (Streptococcus): > 150 µM (not active) | EC50 (Streptokinase A): > 150 µM (not active)

CCOc1ccc(NC(=O)N2CCC(C(N)=O)(N3CCCCC3)CC2)cc1
AC50 (Cytochrome P450 2C19; read-out: AC50): 8.91 µM (inconclusive)

COc1cccc(-c2coc3cc4oc(=O)c(CCC(=O)O)c(C)c4cc23)c1
EC50 [2]: 5.51 µM (active) | EC50 (Streptococcus): 48.5 µM (active) | EC50 (Streptokinase A): > 150 µM (not active)

Cc1cc(NC(=O)CSc2nc3ccsc3c(=O)n2Cc2ccccn2)[nH]n1
AC50 (Cytochrome P450 1A2): 6.31 µM (inconclusive)

COc1ccc(Cc2nnc(NC(=O)Cn3cnc4c3c(=O)n(C)c(=O)n4C)s2)cc1OC
AC50 (Cytochrome P450 2C9): 20 µM (inconclusive) | AC50 (Cytochrome P450 2C19; read-out: AC50): 28.2 µM (inconclusive)

O=C(CCOc1ccccc1)Nc1ccccc1
AC50 (Cytochrome P450 2C9): 1 µM (inconclusive) | AC50 (Cytochrome P450 3A4): 22.4 µM (inconclusive)

COc1ccccc1C(=O)NNC(=O)C(=O)Nc1cccc(Cl)c1C
EC50 [2]: 3.78 µM (active) | EC50 (Streptococcus): 16 µM (active) | EC50 (Streptokinase A): > 150 µM (not active)

COc1ccc(-c2sc3cc(OC)c(OC)cc3c2C#CC2(O)CCCCC2)cc1
AC50 [1]: 1.73 µM (active)

O=C(/C=C/c1ccc(Br)cc1)NC1CCCCCC1
AC50 (Cytochrome P450 1A2): 2 µM (inconclusive)

O=C(O)CCCN1C(=O)/C(=C/c2cn(-c3ccccc3)nc2-c2cccs2)SC1=S
EC50 [2]: 5.9 µM (active) | EC50 (Streptococcus): 7.28 µM (active) | EC50 (Streptokinase A): > 150 µM (not active)

O=C1[C@H]2[C@H]3[C@H](O)[C@H](O)C/C(=N/OCc4ccccc4)[C@H]3CC[C@@H]2C(=O)N1Cc1ccc2c(c1)OCO2
AC50 (Cytochrome P450 2C19; read-out: AC50): 2 µM (inconclusive)

O=C(c1csnn1)N1CCC2(CCCN(Cc3cc(C(F)(F)F)cc(C(F)(F)F)c3)C2)CC1
AC50 (Cytochrome P450 2C9): 39.8 µM (inconclusive) | AC50 (Cytochrome P450 1A2): 12.6 µM (inconclusive)

COC(=O)[C@@]1(Cc2ccc(OC)cc2)[C@H]2c3cc(C(=O)N4CCCC4)n(CCCNc4ncc(C(F)(F)F)cc4Cl)c3C[C@H]2CN1C(=O)c1ccccc1
AC50 (Cytochrome P450 1A2): 31.6 µM (inconclusive) | AC50 (Cytochrome P450 3A4): 1.26 µM (inconclusive)

CC(C)CN=C(S)NC1CC2CCCC(C1)N2Cc1ccco1 (stereo unspecified)
AC50 (Cytochrome P450 2C19; read-out: AC50): 39.8 µM (inconclusive)

S=c1[nH]cnc2scc(-c3ccc(Cl)cc3)c12
EC50 (Streptokinase A): > 150 µM (not active)

CC1CCN(c2ccccc2NC(=O)c2ccc(Br)o2)CC1
EC50 [2]: 5.4 µM (active) | EC50 (Streptococcus): 10.3 µM (active) | EC50 (Streptokinase A): 43.6 µM (active)

O=C(Nc1ccc(-c2csc(-c3ccccc3)n2)cc1)c1ccccc1Cl
EC50 [3]: 1.57 µM (active) | AC50 (Cytochrome P450 1A2): 0.0708 µM (inconclusive) | EC50 [4]: 9.89 µM (active)

CCN(CC)c1cc(C)c2cc(NC(=O)CNC(C)=O)ccc2n1
AC50 (Cytochrome P450 2C9): 0.891 µM (inconclusive) | AC50 (Cytochrome P450 2C19): inconclusive

O=[N+]([O-])c1ccccc1-c1ccc(C(=S)N2CCN(c3ccccc3)CC2)o1
AC50 [1]: > 195 µM (inactive)

COc1cc(OC)cc(C(=O)NCCNc2nc3cc(C)cc(C)c3cc2C#N)c1
AC50 [1]: > 195 µM (inactive)

O=C(Nc1ncc(Cc2cccc([N+](=O)[O-])c2)s1)c1ccco1
AC50 [1]: 1.4 µM (active)

COc1ccc(C(=O)C2=C(O)C(=O)N(c3cc(C)on3)C2c2ccc(OC)c(OC)c2)cc1OC (stereo unspecified)
AC50 (Cytochrome P450 3A4): 22.4 µM (inconclusive)

C[C@@H](CSc1ccc(Br)cc1)CN1CC[C@H](NC(=O)OCc2ccccc2)CCC1=O
AC50 [1]: 5.92 µM (active)

CCC(COC(=O)NC)NC(=O)Oc1ccccc1 (stereo unspecified)
AC50 (Cytochrome P450 1A2): 39.8 µM (inconclusive)

COc1ccc(-c2sc3cc4c(cc3c2-c2ccc(OCCN3CCOCC3)cc2)OCO4)cc1
AC50 [1]: 0.29 µM (active)

COc1cc(OC)cc(-c2sc3ccc(OC)cc3c2C#CCO)c1
AC50 [1]: 4.83 µM (active)

CCOC(=O)Nc1ccc(C)cc1NC(=O)OCC
AC50 (Cytochrome P450 2C9): 25.1 µM (inconclusive) | AC50 (Cytochrome P450 2C19; read-out: AC50): 14.1 µM (inconclusive)

Cc1cc(C(C)(C)C)c(OC(=O)[C@@H]2OC(c3ccccc3)=C[C@H]2c2ccccc2)c(C(C)(C)C)c1
AC50 [1]: 5.03 µM (active)

COc1ccc(CCNC(=O)COC(=O)c2cnc(C)cn2)cc1
AC50 (Cytochrome P450 2C9): 0.00562 µM (inconclusive) | AC50 (Cytochrome P450 1A2): 25.1 µM (inconclusive) | AC50 (Cytochrome P450 3A4): 22.4 µM (inconclusive)

CCCS(=O)(=O)N1CCCC(C(=O)N2CCOCC2)C1 (stereo unspecified)
AC50 (Cytochrome P450 1A2): 5.01 µM (inconclusive)

CCNS(=O)(=O)c1ccc(NS(C)(=O)=O)cc1
AC50 (Cytochrome P450 2C9): 7.94 µM (inconclusive) | AC50 (Cytochrome P450 2C19): inconclusive

O=C(Nc1ccc(Cl)cc1C(=O)c1ccccc1Cl)c1ccco1
AC50 (Cytochrome P450 1A2): 2.51 µM (inconclusive)

C/C(=N/NC(=O)c1ccc(-c2ccccc2)cc1)c1cc(O)cc(O)c1
AC50 [1]: 2.97 µM (active)

C/C(=N\NS(=O)(=O)c1ccc(C)cc1)c1ccc(C)o1
EC50 [2]: > 150 µM (not active) | EC50 (Streptococcus): > 150 µM (not active) | EC50 (Streptokinase A): > 150 µM (not active)

COc1cc(C=C(C#N)C#N)cc(O)c1O
AC50 (Cytochrome P450 3A4): 10 µM (inconclusive)

CC(C)CN(C)c1nc(N)c(C(=O)N=C(N)N)nc1Cl [5-(N-METHYL-N-ISOBUTYL)AMILORIDE]
AC50 (Cytochrome P450 2C19; read-out: AC50): 31.6 µM (inconclusive)

CN1CCc2cc(Cl)c(O)cc2[C@@H](c2ccccc2)C1 [SCH-23390]
AC50 (Cytochrome P450 1A2): 39.8 µM (inconclusive)
